What was measured:
[1] = stated as known drawback of PVP-I; cited from earlier work
[2] = Stability of PVP-I solutions, USP method; type: physicochemical; conditions: aprotic DMSO solvent system, long periods of time
Text: It is known that PVP-I aqueous solutions are difficult to stabilize at low concentrations over a long time. At concentrations less than about 0.7% PVP-I (w/w, aqueous), PVP-I aqueous solutions rapidly decay to yield complex mixtures of iodinated and iodine-free constituents. […] It is of additional novelty that even in the hydrated DMSO solutions prepared from aqueous PVP-I, increased stability is observed for the PVP-I component.

[3] = aqueous solution; stated as known; cited from earlier work

Substance: povidone-iodine [PVP-I]
- PVP-I concentration above which toxic to the sinuses [1]: above 2.2 % w/w
- lowest PVP-I concentration prepared and maintained as stable composition [2]: 0.1%
- PVP-I concentration below which aqueous solutions rapidly decay [3]: less than 0.7 % (w/w, aqueous)
